Reference: patent publication US8470810B2, “Heterocyclic compounds suitable for treating disorders that respond to modulation of the dopamine D3 receptor” (Abbott GmbH & Co. KG, priority 2004, dated 2013)

Columns and labels:
[1] = target: T1, human dopamine D2L receptors (long isoform) (Homo sapiens, UniProt P14416); assay: Dopamine D2L receptor binding, displacement of [125I] iodospiperone; conditions: membranes of HEK-293 cells stably expressing human D2L; 0.01 nM [125I] iodospiperone; 25° C., 60 minutes; read-out: Ki(D2)*
T1 construct: expressed in transfected cells
How it was run: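 Displacement of [125I]iodospiperone from human D2L receptors, triplicates, in 50 mM Tris pH 7.4 with 120 mM NaCl, 5 mM KCl, 2 mM CaCl2, 2 mM MgCl2, 0.1% BSA. Incubated 60 min at 25 °C, then filtered and counted by scintillation. Ki came from iterative nonlinear regression of inhibition curves.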

[2] = target: T2, human dopamine D3 receptors (Homo sapiens, UniProt P35462); assay: Dopamine D3 receptor binding, displacement of [125I]-iodosulpride; conditions: for Ki: membranes of HEK-293 cells stably expressing human D3, 0.1 nM [125I]-iodosulpride, 25° C., 60 minutes; for Ki(D2)*/Ki(D3)*: selectivity ratio of the receptor binding constants D2 over D3
T2 construct: expressed in transfected cells
How it was run: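 Displacement of [125I]-iodosulpride at human D3 receptors in pH 7.4 Tris buffer with NaCl, KCl, CaCl2, MgCl2, 0.1% BSA, 10 μM quinolone and 0.1% ascorbic acid, 60 min at 25 °C, in triplicate. Bound label collected by filtration and counted; Ki from nonlinear regression of inhibition curves.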

T1 sequence (P14416 whole entry, canonical isoform): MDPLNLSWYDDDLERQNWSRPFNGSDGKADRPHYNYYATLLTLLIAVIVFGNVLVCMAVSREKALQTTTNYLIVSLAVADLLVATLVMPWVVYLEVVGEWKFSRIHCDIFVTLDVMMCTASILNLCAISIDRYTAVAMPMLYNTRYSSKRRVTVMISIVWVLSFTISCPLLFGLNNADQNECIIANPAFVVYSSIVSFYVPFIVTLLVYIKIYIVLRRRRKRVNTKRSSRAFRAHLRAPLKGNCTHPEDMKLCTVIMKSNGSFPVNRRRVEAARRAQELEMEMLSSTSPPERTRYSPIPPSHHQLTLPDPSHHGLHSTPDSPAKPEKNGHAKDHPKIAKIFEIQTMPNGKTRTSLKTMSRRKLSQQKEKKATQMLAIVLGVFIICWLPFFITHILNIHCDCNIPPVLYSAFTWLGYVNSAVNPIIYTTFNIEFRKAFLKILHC
T2 sequence (P35462 whole entry): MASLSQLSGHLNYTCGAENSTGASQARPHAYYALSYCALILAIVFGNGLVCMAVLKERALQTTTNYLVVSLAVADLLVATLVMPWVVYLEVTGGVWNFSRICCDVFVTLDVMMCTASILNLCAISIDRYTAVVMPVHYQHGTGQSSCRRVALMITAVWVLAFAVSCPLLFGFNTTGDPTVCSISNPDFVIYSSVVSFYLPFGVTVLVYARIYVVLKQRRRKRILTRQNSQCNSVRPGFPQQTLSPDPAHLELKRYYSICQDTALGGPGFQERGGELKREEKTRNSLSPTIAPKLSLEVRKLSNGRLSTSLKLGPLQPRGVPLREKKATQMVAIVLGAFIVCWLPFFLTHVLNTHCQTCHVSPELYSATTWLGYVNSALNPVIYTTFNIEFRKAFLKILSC

| Structure (SMILES) | Ki [1] [nM] | Ki [2] [nM] | Ki(D2)*/Ki(D3)* [2] |
| --- | --- | --- | --- |
| CCCN1CC[C@@H](c2ccc(NS(=O)(=O)c3ccc(C(CF)CF)cc3)cc2)C1 [Example 95, 4-(2-Fluoro-1-fluoromethyl-ethyl)-N-[4-((S)-1-propyl-pyrrolidin-3-yl)-phenyl]-benzenesulfonamide] | 27.9 | 1.3 | 22 |
| CCCN1CC[C@@H](c2ccc(NS(=O)(=O)c3ccc(CCF)cc3)cc2)C1.Cl [Example 86, 4-(2-Fluoro-ethyl)-N-[4-((S)-1-propyl-pyrrolidin-3-yl)-phenyl]-benzenesulfonamide, hydrochloride] | 119 | 1.18 | 101 |
| CCCN1CC[C@@H](c2ccc(NS(=O)(=O)c3ccc(F)cc3)cc2)C1.Cl [Example 125, 4-Fluoro-N-[4-((S)-1-propyl-pyrrolidin-3-yl)-phenyl]-benzenesulfonamide hydrochloride] | 1300 | 19.5 | 67 |
| CCCN1CC(c2ccc(NS(=O)(=O)c3ccc(C(C)C(F)(F)F)cc3)cc2)C1 (stereo not drawn) [Example 63, N-[4-(1-Propyl-azetidin-3-yl)-phenyl]-4-(2,2,2-trifluoro-1-methyl-ethyl)benzenesulfonamide] | 647 | 5.75 | 113 |
| C=CCN1CC[C@@H](c2ccc(NS(=O)(=O)c3ccc(C(C)C)cc3)cc2)C1.Cl [Example 3, 4-(Isopropyl)-N-[4-((S)-1-allyl-pyrrolidin-3-yl)-phenyl]-benzenesulfonamide hydrochloride] | 13.8 | 0.17 | 91 |
| C[C@H](CF)c1ccc(S(=O)(=O)Nc2ccc([C@@H]3CCNC3)cc2)cc1 [Example 109, 4-((S)-2-Fluoro-1-methyl-ethyl)-N—((S)-4-pyrrolidin-3-yl-Phenyl)-benzenesulfonamide] | 258 | 7.4 | 35 |
| C[C@@H](CF)c1ccc(S(=O)(=O)Nc2ccc([C@@H]3CCNC3)cc2)cc1 [Example 110, 4-((R)-2-Fluoro-1-methyl-ethyl)-N—((S)-4-pyrrolidin-3-yl-phenyl)-benzenesulfonamide] | 895 | 6.6 | 135 |
| CC(C)c1ccc(S(=O)(=O)Nc2ccc([C@@H]3CCN(CCCO)C3)cc2)cc1 [Example 53, N-{4-[(S)-1-(3-Hydroxy-propyl)-pyrrolidin-3-yl]-phenyl}-4-isopropyl-benzenesulfonamide] | 5.85 | 0.41 | 14 |
| CCCN1CC[C@@H](c2ccc(NS(=O)(=O)c3ccc(OC(F)F)cc3)cc2)C1.Cl [Example 9, 4-Difluoromethoxy-N-[4-((S)-1-propyl-pyrrolidin-3-yl)-phenyl]-benzenesulfonamide hydrochloride] | 129 | 2.6 | 49 |
| CCN1CC[C@@H](c2ccc(NS(=O)(=O)c3ccc(C(C)C)cc3)cc2)C1 [Example 84, 4-Isopropyl-N-[4-((S)-1-ethyl-pyrrolidin-3-yl)-phenyl]-benzenesulfonamide] | 16.2 | 0.95 | 17 |
| C=C(C)c1ccc(S(=O)(=O)Nc2ccc([C@@H]3CCN(CCC)C3)cc2)c(F)c1 [Example 19, 2-Fluoro-4-isopropenyl-N-[4-((S)-1-propyl-pyrrolidin-3-yl)-phenyl]-benzenesulfonamide] | 12.6 | 0.48 | 26 |
| CCCN1CC[C@@H](c2ccc(NS(=O)(=O)c3ccc([C@@H](C)CF)cc3)cc2)C1 [Example 93, 4-((R)-2-Fluoro-1-methyl-ethyl)-N-[4-((S)-1-propyl-pyrrolidin-3-yl)-phenyl]-benzenesulfonamide] | 14.7 | 0.48 | 31 |
| CCCN1CC[C@@H](c2ccc(NS(=O)(=O)c3ccc([C@H](C)CF)cc3)cc2)C1 [Example 87, 4-((S)-2-Fluoro-1-methyl-ethyl)-N-[4-((S)-1-propyl-pyrrolidin-3-yl)-phenyl]-benzenesulfonamide] | 20.5 | 0.55 | 37 |
| CCCN1CC(c2ccc(NS(=O)(=O)c3ccc(CCCF)cc3)cc2)C1 [Example 57, 4-(3-Fluoro-propyl)-N-[4-(1-propyl-azetidin-3-yl)-phenyl]-benzenesulfonamide] | 880 | 7.18 | 123 |
| CCCN1CC[C@@H](c2ccccc2NS(=O)(=O)c2ccc(-c3cnco3)cc2)C1 [Example 71, 4-Oxazol-5-yl-N-[2-((S)-1-propyl-pyrrolidin-3-yl)-phenyl]-benzenesulfonamide] | 52.3 | 4.79 | 11 |
| CN1CC[C@@H](c2ccc(NS(=O)(=O)c3ccc(OC(F)(F)F)cc3)cc2)C1 [Example 111, N-[4-((S)-1-Methyl-pyrrolidin-3-yl)-phenyl]-4-trifluoromethoxy-benzenesulfonamide] | 723 | 16.4 | 44 |
| CCCN1CC(c2ccc(NS(=O)(=O)c3ccc(CC(F)(F)F)cc3)cc2)C1 [Example 62, N-[4-(1-Propyl-azetidin-3-yl)-phenyl]-4-(2,2,2-trifluoro-ethyl)-benzenesulfonamide] | 3540 | 25.2 | 141 |
| CC(C)c1ccc(S(=O)(=O)Nc2ccc([C@@H]3CCNC3)cc2)cc1 [Example 18, 4-Isopropyl-N-[4-((S)-pyrrolidin-3-yl)-phenyl]-benzenesulfonamide] | 90 | 2.3 | 39 |
